Test results: paper PMC6225275 (Molecules : A Journal of Synthetic Chemistry and Natural …, 2018)
Where “and” joins values, the source holds several entries; their conditions need not be identical. Equal entries are not always repeated.

Legend:
Type in all cases: biochemical
[1] = target: T1, paraoxon (POX)-inhibited human recombinant AChE (HssAChE) (Homo sapiens, UniProt P22303); settings: for POX-HssAChE Reactivation (% ± SD): pH 7.4
T1 construct: purchased Sigma-Aldrich

[2] = target: T2, diisopropylfluorophosphate (DFP)-inhibited human recombinant AChE (HssAChE) (Homo sapiens, UniProt P22303); settings: pH 7.4
T2 construct: purchased Sigma-Aldrich
T2 sequence (P22303 32-614): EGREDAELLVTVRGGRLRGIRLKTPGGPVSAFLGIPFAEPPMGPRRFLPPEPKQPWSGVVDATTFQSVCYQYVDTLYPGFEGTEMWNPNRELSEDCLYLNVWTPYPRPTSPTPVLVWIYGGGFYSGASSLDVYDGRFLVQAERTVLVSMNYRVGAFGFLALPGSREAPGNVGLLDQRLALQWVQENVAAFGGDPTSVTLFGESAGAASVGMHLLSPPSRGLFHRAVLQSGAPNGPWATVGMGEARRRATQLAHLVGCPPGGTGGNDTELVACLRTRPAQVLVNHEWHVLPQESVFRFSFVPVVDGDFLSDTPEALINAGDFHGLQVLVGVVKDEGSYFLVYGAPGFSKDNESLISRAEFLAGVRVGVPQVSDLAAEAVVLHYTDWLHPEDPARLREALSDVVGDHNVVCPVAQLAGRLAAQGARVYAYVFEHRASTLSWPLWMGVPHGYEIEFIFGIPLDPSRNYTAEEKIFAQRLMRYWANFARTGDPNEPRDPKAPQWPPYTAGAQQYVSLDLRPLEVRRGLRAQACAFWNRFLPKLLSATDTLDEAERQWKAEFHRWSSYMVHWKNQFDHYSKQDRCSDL

[3] = target: T3, methylparaoxon (MePOX)-inhibited human recombinant AChE (HssAChE) (Homo sapiens, UniProt P22303); settings: for MePOX-HssAChE Reactivation (% ± SD): pH 7.4
T3 construct: purchased Sigma-Aldrich
T3 sequence (P22303 32-614): as above

T1 sequence (P22303 32-614): as above

With `C[n+]1ccccc1/C=N/O` [Compound 1, pralidoxime, reference compound] the “POX reactivation, maximum over both concentrations” value [1] was “up to 11%”, the “POX-HssAChE Reactivation (% ± SD)” value [1] was 10.7 ± 0.3% and 2.1 ± 0.1% and the “DFP-HssAChE Reactivation (% ± SD)” value [2] was 1.3 ± 0.6% and 0.1 ± 0.4%. The “MePOX reactivation, maximum over both concentrations” value [3] was “up to 30%” and the “MePOX-HssAChE Reactivation (% ± SD)” value [3] was 30.2 ± 0.3% and 22.4 ± 0.7%.
For `ON=Cc1cc[n+](CCC[n+]2ccc(/C=N/O)cc2)cc1` [Compound 4, trimedoxime, reference compound], the “DFP-HssAChE Reactivation (% ± SD)” value [2] was 10.0 ± 0.5% and 2.7 ± 0.3% and the “MePOX-HssAChE Reactivation (% ± SD)” value [3] was 51.4 ± 0.9% and 59.5 ± 0.7%.
In the case of `ON=Cc1cc[n+](C[n+]2ccc(C=NO)cc2)cc1` [Compound 5, methoxime, reference compound], the “DFP-HssAChE Reactivation (% ± SD)” value [2] is reported as 2.4 ± 0.1% and 0.6 ± 0.3% and the “MePOX-HssAChE Reactivation (% ± SD)” value [3] is reported as 14.2 ± 0.1% and 14.3 ± 0.2%.
With `NC(=O)c1cc[n+](CCCC[n+]2ccc(/C=N/O)cc2)cc1` [Compound 6, reference compound] the “DFP-HssAChE Reactivation (% ± SD)” value [2] was 3.8 ± 0.1% and 1.4 ± 0.1% and the “MePOX-HssAChE Reactivation (% ± SD)” value [3] was 54.4 ± 0.9% and 29.1 ± 0.4%.
For `ON=Cc1cc[n+](CCCC[n+]2ccc(/C=N/O)cc2)cc1` [Compound 7, reference compound], the “DFP-HssAChE Reactivation (% ± SD)” value [2] was 1.4 ± 0.5% and 1.4 ± 0.2% and the “MePOX-HssAChE Reactivation (% ± SD)” value [3] was 17.9 ± 0.1% and 21.2 ± 0.4%.
`ON=Cc1cc[n+](C/C=C/C[n+]2ccc(/C=N/O)cc2)cc1` [Compound 8, reference compound] was tested, and the “DFP-HssAChE Reactivation (% ± SD)” value [2] was 1.1 ± 0.3% and 1.5 ±0.2% and the “MePOX-HssAChE Reactivation (% ± SD)” value [3] was 19.2 ± 0.9% and 22.8 ± 0.2%.
For `NC(=O)c1cc[n+](C/C=C/C[n+]2ccc(/C=N/O)cc2)cc1` [Compound 9, (E)-1-(4-Carbamoylpyridinium)-4-(4-hydroxyiminomethylpyridinium)-but-2-ene Dibromide, reference compound], the “DFP-HssAChE Reactivation (% ± SD)” value [2] was 4.4 ± 0.1% and 2.1 ± 0.4% and the “MePOX-HssAChE Reactivation (% ± SD)” value [3] was 55.9 ± 0.5% and 41.1 ± 0.1%.
`ON=Cc1cc[n+](CCCC[n+]2ccccc2)cc1.[Br-].[Br-]` [Compound 10, 4-Hydroxyiminomethyl-1,1′-(but-1,4-diyl)-bispyridinium dibromide] was tested, and the “DFP-HssAChE Reactivation (% ± SD)” value [2] was 2.4 ± 0.5% and 0.4 ± 0.3% and the “MePOX-HssAChE Reactivation (% ± SD)” value [3] was 14.3 ± 0.8% and 13.2 ± 0.1%.
For `ON=Cc1cc[n+](CCCC[n+]2ccccn2)cc1` [Compound 11, 4-Hydroxyiminomethyl-1,1′-(but-1,4-diyl)-1-pyridinium-1′-pyridazinium dibromide], the “POX-HssAChE Reactivation (% ± SD)” value [1] was 6.3 ± 0.8% and 3.0 ± 0.3%, the “DFP-HssAChE Reactivation (% ± SD)” value [2] was 1.2 ± 0.7% and 1.0 ± 0.4% and the “MePOX-HssAChE Reactivation (% ± SD)” value [3] was 7.1 ± 0.7% and 11.8 ± 0.4%.
`ON=Cc1cc[n+](CCCC[n+]2cccc3ccccc32)cc1` [Compound 12, 4-Hydroxyiminomethyl-1,1′-(but-1,4-diyl)-1-pyridinium-1′-quinolinium dibromide] was tested, and the “POX-HssAChE Reactivation (% ± SD)” value [1] was 0.6 ± 0.5% and 2.0 ± 0.1%, the “DFP-HssAChE Reactivation (% ± SD)” value [2] was 0.2 ± 1.0% and 0.8 ± 0.2% and the “MePOX-HssAChE Reactivation (% ± SD)” value [3] was 2.2 ± 0.5% and 8.6 ± 0.4%.
In the case of `ON=Cc1cc[n+](CCCC[n+]2ccc3ccccc3c2)cc1` [Compound 13, 4-Hydroxyiminomethyl-1,1′-(but-1,4-diyl)-1-pyridinium-1′-isoquinolinium dibromide], the “POX-HssAChE Reactivation (% ± SD)” value [1] is reported as 9.1 ± 0.3% and 8.7 ± 0.3%, the “DFP-HssAChE Reactivation (% ± SD)” value [2] is reported as 0.7 ± 0.2% and 1.1 ± 0.2% and the “MePOX-HssAChE Reactivation (% ± SD)” value [3] is reported as 8.2 ± 0.8% and 16.9 ± 0.4%.
In the case of `Cc1cc[n+](CCCC[n+]2ccc(C=NO)cc2)cc1.[Br-].[Br-]` [Compound 14, 4-Hydroxyiminomethyl-4′-methyl-1,1′-(but-1,4-diyl)-bispyridinium dibromide], the “DFP-HssAChE Reactivation (% ± SD)” value [2] is reported as 1.1 ± 0.4% and 0.8 ± 0.3% and the “MePOX-HssAChE Reactivation (% ± SD)” value [3] is reported as 9.5 ± 0.5% and 9.4 ± 0.2%.
`CC(C)(C)c1cc[n+](CCCC[n+]2ccc(C=NO)cc2)cc1.[Br-].[Br-]` [Compound 15, 4-Hydroxyiminomethyl-4′-(1,1-dimethylethyl)-1,1′-(but-1,4-diyl)-bispyridinium dibromide] was tested, and the “DFP-HssAChE Reactivation (% ± SD)” value [2] was 1.7 ± 0.5% and 0.8 ± 0.3% and the “MePOX-HssAChE Reactivation (% ± SD)” value [3] was 4.0 ± 0.5% and 7.6 ± 0.5%.
In the case of `ON=Cc1cc[n+](CCCC[n+]2ccc(-c3ccccc3)cc2)cc1.[Br-].[Br-]` [Compound 16, 4-Hydroxyiminomethyl-4′-phenyl-1,1′-(but-1,4-diyl)-bispyridinium dibromide], the “POX-HssAChE Reactivation (% ± SD)” value [1] is reported as 6.9 ± 0.4% and 8.9 ± 0.5%, the “DFP-HssAChE Reactivation (% ± SD)” value [2] is reported as 0.7 ± 0.2% and 1.0 ± 0.3% and the “MePOX-HssAChE Reactivation (% ± SD)” value [3] is reported as 1.7 ± 0.3% and 6.2 ± 0.4%.
For `ON=Cc1cc[n+](CCCC[n+]2ccc(Cc3ccccc3)cc2)cc1.[Br-].[Br-]` [Compound 17, 4-Hydroxyiminomethyl-4′-phenylmethyl-1,1′-(but-1,4-diyl)-bispyridinium dibromide], the “POX-HssAChE Reactivation (% ± SD)” value [1] was 1.2 ± 0.1% and 4.7 ± 0.3%, the “DFP-HssAChE Reactivation (% ± SD)” value [2] was 0.0 ± 0.5% and 0.8 ± 0.2% and the “MePOX-HssAChE Reactivation (% ± SD)” value [3] was 0.0 ± 0.1% and 3.8 ± 0.4%.
In the case of `OCc1cc[n+](CCCC[n+]2ccc(C=NO)cc2)cc1.[Br-].[Br-]` [Compound 18, 4-Hydroxyiminomethyl-4′-hydroxymethyl-1,1′-(but-1,4-diyl)-bispyridinium dibromide], the “DFP-HssAChE Reactivation (% ± SD)” value [2] is reported as 3.8 ± 1.0% and 1.4 ± 0.4% and the “MePOX-HssAChE Reactivation (% ± SD)” value [3] is reported as 6.7 ± 0.3% and 8.1 ± 0.3%.
`CC(=O)c1cc[n+](CCCC[n+]2ccc(C=NO)cc2)cc1.[Br-].[Br-]` [Compound 19, 4-Hydroxyiminomethyl-4′-methylcarbonyl-1,1′-(but-1,4-diyl)-bispyridinium dibromide] was tested, and the “POX-HssAChE Reactivation (% ± SD)” value [1] was 11.9 ± 1.0% and 3.9 ± 0.3%, the “DFP-HssAChE Reactivation (% ± SD)” value [2] was 1.5 ± 0.3% and 1.0 ± 0.2% and the “MePOX-HssAChE Reactivation (% ± SD)” value [3] was 5.2 ± 0.4% and 7.5 ± 0.1%.
In the case of `O=C(O)c1cc[n+](CCCC[n+]2ccc(C=NO)cc2)cc1.[Br-].[Br-]` [Compound 20, 4-Carboxy-4′-hydroxyiminomethyl-1,1′-(but-1,4-diyl)-bispyridinium dibromide], the “DFP-HssAChE Reactivation (% ± SD)” value [2] is reported as 1.1 ± 0.5% and 0.4 ± 0.1% and the “MePOX-HssAChE Reactivation (% ± SD)” value [3] is reported as 9.5 ± 0.3% and 8.8 ± 0.4%.
`CCOC(=O)c1cc[n+](CCCC[n+]2ccc(C=NO)cc2)cc1` [Compound 21, 4-Ethylcarboxy-4′-hydroxyiminomethyl-1,1′-(but-1,4-diyl)-bispyridinium dibromide] was tested, and the “POX-HssAChE Reactivation (% ± SD)” value [1] was 7.1 ± 0.7% and 4.0 ± 0.6%, the “DFP-HssAChE Reactivation (% ± SD)” value [2] was 0.8 ± 0.3% and 1.1 ± 0.2% and the “MePOX-HssAChE Reactivation (% ± SD)” value [3] was 3.8 ± 0.4% and 7.2 ± 0.2%.
With `N#Cc1cc[n+](CCCC[n+]2ccc(C=NO)cc2)cc1` [Compound 22, 4-Carbonitril-4′-hydroxyiminomethyl-1,1′-(but-1,4-diyl)-bispyridinium dibromide] the “DFP-HssAChE Reactivation (% ± SD)” value [2] was 1.7 ± 0.5% and 0.4 ± 0.2% and the “MePOX-HssAChE Reactivation (% ± SD)” value [3] was 11.1 ± 0.1% and 13.8 ± 0.3%.
`NC(=NO)c1cc[n+](CCCC[n+]2ccc(C=NO)cc2)cc1.[Br-].[Br-]` [Compound 23, 4-(1-Amino-1-hydroxyiminomethyl)-4′-hydroxyiminomethyl-1,1′-(but-1,4-diyl)-bispyridinium dibromide] was tested, and the “DFP-HssAChE Reactivation (% ± SD)” value [2] was 3.1 ± 0.8% and 2.0 ± 0.2% and the “MePOX-HssAChE Reactivation (% ± SD)” value [3] was 21% and 20.2 ± 1.0% and 20.7 ± 0.4%.
In the case of `NC(=O)c1cc[n+](CCCC[n+]2ccc(C=NO)cc2)cc1C(N)=O.[Br-].[Br-]` [Compound 24, 3,4-Dicarbamoyl-4′-hydroxyiminomethyl-1,1′-(but-1,4-diyl)-bispyridinium dibromide], the “POX-HssAChE Reactivation (% ± SD)” value [1] is reported as 2.0 ± 0.4% and 2.2 ± 0.8%, the “DFP-HssAChE Reactivation (% ± SD)” value [2] is reported as 0.7 ± 0.4% and 0.7 ± 1.0% and the “MePOX-HssAChE Reactivation (% ± SD)” value [3] is reported as 4.2 ± 0.5% and 10.1 ± 0.2%.
